# From article PMC11215771 (Journal of Medicinal Chemistry, 2024)
# Biological target: T1, wild-type hBACE1 in CHO-K1 cells (Homo sapiens, UniProt P56817)
# T1 construct: expressed in transfected cells; host or cells: CHO-K1
# Assay: Single molecule TIRF microscopy and bleaching step analysis in CHO-K1 cells
# Assay type: cell-based
# Conditions: 200 nM probe, fixed CHO-K1, TIRF, after rolling background subtraction
# Procedure: Due to the high photostability and quantum yield of the Alexa dyes, the C3-compounds are potential tools for single molecule fluorescence microscopy of BACE1. […] CHO-K1 cells were transfected with wild-type BACE1. […] The samples were then recorded using total internal reflection fluorescence (TIRF) microscopy. […] Prior to analysis, ImageJ rolling background subtraction was applied[45] (Figure 6A, right panel). […] Single particles were identified and time traces of fluorescence intensity were extracted using GMimPro[46] (Figure 6B). The time traces were then subjected to a bleaching-step analysis with quickPBSA[47] (Figure 6B). […] The msfGFP was reported previously to display a fluorescence probability of about 50%, defined as combined probability of fluorescence, detection in the specific imaging system and identification in the analysis of a BACE1 molecule.[48] […] Here, the best fits indicated also a fluorescence probability of about 60%, but with a considerably lower fit error compared to dimers only (Figure 6D, blue traces).
# The panel in the middle depicts typical single molecule complexes 48 h after transfection with 50 ng wild type BACE1. […] The insets highlight single fluorescence spots at higher magnification. […] (B) Single fluorescence spots were located and fluorescence intensities over time were extracted (see methods). […]
# T1 sequence (P56817 46-501): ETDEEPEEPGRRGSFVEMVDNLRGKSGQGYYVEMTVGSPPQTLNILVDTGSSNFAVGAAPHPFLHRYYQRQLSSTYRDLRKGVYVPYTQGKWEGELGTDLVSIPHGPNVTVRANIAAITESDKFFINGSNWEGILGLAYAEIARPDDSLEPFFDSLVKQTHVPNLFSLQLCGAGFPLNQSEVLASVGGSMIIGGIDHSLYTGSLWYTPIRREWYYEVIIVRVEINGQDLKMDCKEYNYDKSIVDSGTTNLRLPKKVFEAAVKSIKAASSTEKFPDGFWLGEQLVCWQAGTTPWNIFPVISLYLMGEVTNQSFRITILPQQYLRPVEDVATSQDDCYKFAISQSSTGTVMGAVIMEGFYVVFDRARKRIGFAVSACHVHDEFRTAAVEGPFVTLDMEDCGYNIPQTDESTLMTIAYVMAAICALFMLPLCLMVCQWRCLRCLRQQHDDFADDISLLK
smiles,measurement,value
"C[C@@H](NC(=O)c1cc(C(=O)N[C@@H](Cc2ccccc2)[C@H](O)CNC2CC2)cc(N(C)S(=O)(=O)CCCNC(=O)c2ccc(C(=O)O)c(-c3c4ccc(=N)c(S(=O)(=O)O)c-4oc4c(S(=O)(=O)O)c(N)ccc34)c2)c1)c1ccccc1 [2-(6-Amino-3-iminio-4,5-disulfo-3H-xanthen-9-yl)-4-((3-(N-(3-(((2S,3R)-4-(cyclopropylamino)-3-hydroxy-1-phenylbutan-2-yl)carbamoyl)-5-(((R)-1-phenylethyl)carbamoyl)phenyl)-N-methylsulfamoyl)propyl)carbamoyl)benzoate]",signal-to-background ratio,4.8
